Blank lines part the entries; values can stand above or below the compound they belong to.
What was measured:
[1] = Curcumin-SR dissolution test (SGF then SIF); format: physicochemical; settings: simulated gastric and intestinal fluids
Procedure: The in vitro dissolution study was performed using the Varian 7020 dissolution tester with the basket configuration at 37° C., 100 rpm. The samples equivalent to 25 mg Curcumin filled in hard gelatin capsules were used for the study. The capsules were introduced into 750 ml of 0.1N HCl (simulated gastric fluid without enzymes, SGF) maintained at 37° C. At the end of 1 and 2 hrs, 3 ml of the sample was withdrawn and filtered through 10μ-syringe filter. The removed volume was replaced each time with fresh medium. At the end of 2 hr, the pH of the medium was adjusted to 6.5 (simulated intestinal fluid without enzymes, SIF) with 195 ml of 0.2M tribasic sodium phosphate solution equilibrated to 37° C. Polysorbate 80 dissolved in 55 ml of water was added to a concentration of 0.25% to simulate intestinal fluid. Aliquots were withdrawn at 4, 6, 9, and 12 hrs for analysis, as described before, and the removed volume was replaced with fresh medium each time. The aliquots were diluted with methanol for the HPLC analysis of Curcumin. Curcumin was quantified using reverse-phase HPLC on a Phenomenex Luna column (150×4.6 mm, 5 μm) at room temperature. The samples were eluted using an isocratic mobile phase consisting of 5% acetic acid/45% and acetronitrile/55%. The flow rate was 1 ml/min and detection wavelength was 420 nm. Standard Curcumin from Chromadex was used for quantification. […]

[2] = Curcumin-SR bioavailability pilot human uptake study; format: in vivo; settings: plasma Curcumin, 250 mg total Curcuminoids oral, 0-9 hr
Procedure: (§1) Curcumin-SR formulation and Curcumin powder equivalent to 250 mg total Curcuminoids were used for the study. The samples were provided in hard gelatin capsules. The crossover study was done using two healthy subjects who were not using curcumin in their food preparations or consuming Curcumin supplements. On the day of the study, 7 ml of blood was collected in EDTA tubes to permit establishment of baseline value. Curcumin-SR capsules were administered after breakfast and blood samples were drawn as before at 1, 2, 4, 7, and 9 hrs post-dose. The samples were stored on ice protected from light and the plasma was separated by centrifugation within 1 hr of collection and stored at −70° C. until analysis. After a 7-day washout period the protocol was repeated for the control Curcumin powder capsules.
Hydrolysis of Curcumin conjugates and extraction of Curcumin from the plasma were done based on the method described by Vareed et at. (Pharamcokinetics of curcumin conjugate metabolites in healthy human subjects, Cancer Epidemiol Biomarkers, 17: 1411-1417, 2008). One ml of the plasma was incubated with 2000 units of β-glucuronidase and 260 units sulfatase at 37° C. for 3.5 hrs. The samples were extracted three times with ethyl acetate/methanol (95:5) and the solvents were evaporated under nitrogen protected from light. […] Curcumin was quantified using reverse-phase HPLC as described above.

[3] = Resveratrol-SR dissolution test (SGF then SIF); format: physicochemical; settings: sink conditions, SGF 2 hr then SIF pH 6.5, 25 mg Resveratrol
Procedure: The in vitro dissolution study was performed using the Varian 7020 dissolution tester with the basket configuration at 37° C., 100 rpm. The samples equivalent to 25 mg Resveratrol filled in hard gelatin capsules were used for the study. The capsules were introduced into 750 ml of 0.1N HCl (simulated gastric fluid without enzymes, SGF) maintained at 37° C. […] The removed volume was replaced each time with fresh medium. […] Polysorbate 80 dissolved in 55 ml of water was added to a concentration of 0.25% to simulate intestinal fluid. Aliquots were withdrawn at 4, 6, 9, and 12 hrs for analysis as described before and the removed volume was replaced with fresh medium each time. The aliquots were diluted with methanol for HPLC analysis. Resveratrol was quantified using reverse-phase HPLC on a Phenomenex Prodigy column (250×4.6 mm, 5 μm) at room temperature. The samples were eluted using an isocratic mobile phase consisting of 5% acetic acid/55% and methaniol/45%. The flow rate was 1 ml/min and detection wavelength was 306 nm. The retention time for Resveratrol was 7.5 min under these conditions. Standard Resveratrol from Sigma was used for calibration.

[4] = Resveratrol-SR bioavailability pilot human uptake study; format: in vivo; settings: plasma free Resveratrol, 500 mg oral, 0-24 hr
Procedure: Resveratrol-SR formulation and 98% Resveratrol powder equivalent to 500 mg Resveratrol were used for the study. The samples were provided in hard gelatin capsules. The crossover study was done using two healthy subjects who were not consuming Resveratrol supplements. The subjects were asked not to consume Resveratrol containing foods, such as, peanuts grapes and wine, for 48 hours before the study. On the day of the study, 7 ml of blood was collected in EDTA tubes to permit establishment of baseline value. Resveratrol-SR capsules were administered after breakfast and blood samples were drawn as before at 1, 2, 4, 7, 9, and 24 his post-dose. The samples were stored on ice protected from light and the plasma was separated by centrifugation within 1 hr of collection and stored at −70° C. until analysis. After a 7-day washout period the protocol was repeated for the control Resveratrol powder capsules. Plasma total Resveratrol (Resveratrol conjugates and free Resveratrol) and free Resveratrol were determined based on the method described by Meng et al. (Urinary and plasma levels of resveratrol and quercetin in humans, mice and rats after ingestion of pure compounds and grape juice, J. Agric. Food Chem., 52: 935-942, 2004). […] Resveratrol was quantified using reverse-phase HPLC as described above.

[5] = PQQ-SR dissolution test (SGF then SIF); format: physicochemical; settings: SGF 2 hr then SIF pH 6.5, 20 mg PQQ
Procedure: The in vitro dissolution study was performed using the Varian 7020 dissolution tester with the basket configuration at 37° C., 100 rpm. The samples equivalent to 20 mg PQQ filled in hard gelatin capsules were used for the study. The capsules were introduced into 750 ml of 0.1N HCl (simulated gastric fluid without enzymes, SGF) maintained at 37° C. At the end of 1 and 2 hrs, 2 ml of the sample was withdrawn and filtered through 10μ-syringe filter. The removed volume was replaced each time with fresh medium. PQQ was determined by spectrophotometry at 330 nm.
At the end of 2 hr, the pH of the medium was adjusted to 6.5 (Simulated intestinal fluid without enzymes, SIF) with an appropriate amount of 0.2M tribasic sodium phosphate solution equilibrated to 37° C., Polysorbate 80 at 0.25% (simulating fed state) dissolved in water was added to the medium. Aliquots were withdrawn at 4, 6, 9, and 12 hrs for analysis as described before and the removed volume was replaced with fresh medium each time.

[6] = PQQ-SR bioavailability pilot human uptake study; format: in vivo; settings: free plasma PQQ
Procedure: as §1, with “PQQ-SR” for “Curcumin-SR”, “PQQ” for “Curcumin”, “40” for “250”, “PQQ” for “total Curcuminoids”, “subjects.” for “subjects who were not using curcumin in their food preparations or consuming Curcumin supplements.”
Plasma PQQ was extracted using n-butanol and HCl followed by SepPak C-18 clean up of the extract as described by Suzuki et al. (Extractions of pyrroloquinoline quinone from crude biological samples, Suzuki, O., et al., Life Sci., 47: 2135-41, 1990). PQQ was estimated by using the enzymatic method as described by Geiger and Gorisch (Enzymatic determination of pyrroloquinoline quinone using crude membranes from E. coli, Geiger, O. and Gorisch, H., Anal Biochem., 164: 418-23, 1987). The method measures only the free PQQ in the plasma.

[7] = human studies, background; cited from earlier work

average area under the curve AUC0-9hr [2]: 0.04778 µg·h/mL
SMILES: COc1cc(/C=C/C(=O)CC(=O)/C=C/c2ccc(O)c(OC)c2)ccc1O [Curcumin powder, Curcumin]
dissolution profile in words [1]: very little is micronized or released at the gastric pH

dissolution of dose in 4 hours [3]: 100%
average area under the curve AUC0-24hr for free Resveratrol [4]: 2.29 µg·h/mL
SMILES: Oc1ccc(/C=C/c2cc(O)cc(O)c2)cc1 [Resveratrol powder, 3,4′,5-trihydroxy-trans-stilbene]

dose in solution by 4 hrs [5]: 100%
time by which plasma level reached near baseline [6]: ≤ 9 h
average area under the curve AUC0-9hr ([6]; 40 mg oral, 0-9 hr): 0.03141 µg·h/mL
Tmax ([6]; human, 40 mg PQQ oral, two healthy subjects): 2 h
SMILES: O=C(O)c1cc(C(=O)O)c2c(n1)C(=O)C(=O)c1cc(C(=O)O)[nH]c1-2 [control PQQ powder, Pyrroloquinoline quinone]
time after ingestion at which maximum plasma level was reached [7]: 2 h
time by which levels reached baseline [7]: ≤ 8 h
